One experiment has as its system canine fetal myoblasts. Nature of the experiment: SDF-1 induced transwell cell migration. The note with it: 30 μM. It is filed as cell-based. As to the method: Cells were placed at a concentration of 5×10^4/well in the upper chamber (BD Biosciences), and the chamber was placed in a 24-well culture plate (BD Biosciences) containing culture medium and 100 nM SDF-1 for measuring the migratory capacity of myoblast cells. After 48 hours of incubation at 37° C., the medium was removed, and the insert was transferred to a second plate containing Calcein-AM solution. The plates were incubated for 90 minutes at 37° C. in a 5% CO2 incubator. The fluorescence of migrating cells was read in a fluorescence microplate reader with bottom reading capabilities at excitation/emission wavelengths of 485/530 nm. […] Apoj expression can also provide protection against apoptotic stem cell death. This finding is consistent with published results that ApoJ expression can provide some protection against apoptotic cell death. Exposure to oxidized cholesterol or oxysterol often triggers apoptosis in a variety of cells and atheroma contains abundant oxysterols such as 7-ketocholsterol. Therefore, a study was done to establish that ApoJ expression will exert protective effects against apoptotic cell death for stem cells. After incubation of vascular smooth muscle cells from the aorta of ApoJ-knockout mice or wild-type mice with 10 μg/ml 7-ketocholsterol for 24-48 the cells were examined for viability by stained with a combination of acridine orange and ethidium bromide. […]

The next experiment deals with KG-293 cells. The experiment can be described thus: TCN-induced ApoJ expression and TNF-α induced apoptosis in KG-293 cells. Type of experiment: cell-based, human. The note with it: 10 ng/ml for 24- and 48-hours. The source says: Recent studies have shown that ApoJ can be induced by certain growth factors such as TGF-ß translocate to the nucleus participating in apoptosis regulation. To determine whether intracellular expression of ApoJ inhibits receptor-mediated apoptosis induced by cytokines, we constructed a plasmid (pkS7) with ApoJ cDNA insert lacking the sequence for the domain of protein secretion. The non-secreted, intracellular isoform of ApoJ gene mimics the intracellular isoform inducible by TGF-ß. Under regulation by a CMV promoter with TCN-responding elements, pKS7 transfection of HEK293 cells generated a stable cell line (KG-293) with ApoJ over expression. […] KG-293 cells over expressing the intracellular form of ApoJ also underwent dramatic alterations in morphology and proliferation.

From US10639277B1, “Multi-functional echogenic immunoliposomes for directed stem cell delivery to atheroma” (BOARD OF REGENTS OF THE UNIVERSITY OF TEXAS SYSTEM, priority 2009, dated 2020) come the findings set out here.

Take `COc1cccc(-c2cc(=O)c3ccccc3o2)c1N` [PD98059]: in the experiment with canine fetal myoblasts, the “effect on SDF-1 induced migration of ApoJ-overexpressing myoblasts” value is on record as “did not have any significant impact”.

Take TNF-α: the “apoptosis in control KG-293 cells not exposed to TCN” value with KG-293 cells is “marked apoptosis”.
